Experimental data from the kinase profiling compilation of Christmann-Franck et al. (2016).

Tests used:
[1] = molecular target: EPHA8 (human) (UniProt P29322); experiment: Caliper, Mobility shift assay off-chip
[2] = molecular target: EPHB3 (human) (UniProt P54753); experiment: Caliper, Mobility shift assay off-chip
[3] = molecular target: PRKCG (human) (UniProt P05129); experiment: Caliper, Mobility shift assay off-chip
[4] = molecular target: MKNK2 (human) (UniProt Q9HBH9); experiment: Caliper, Mobility shift assay off-chip
[5] = molecular target: CDC42BPA (human) (UniProt Q5VT25); experiment: Caliper, Mobility shift assay off-chip
[6] = molecular target: PLK2 (human) (UniProt Q9NYY3); experiment: IMAP-FP
[7] = molecular target: SRPK1 (human) (UniProt Q96SB4); experiment: IMAP-FP
[8] = molecular target: EIF2AK3 (human) (UniProt Q9NZJ5); experiment: IMAP-FP
[9] = molecular target: EIF2AK2 (human) (UniProt P19525); experiment: IMAP-FP
[10] = molecular target: MAP3K10 (human) (UniProt Q02779); experiment: ELISA
[11] = molecular target: MAP3K8 (human) (UniProt P41279); experiment: ELISA
[12] = molecular target: MAP3K2 (human) (UniProt Q9Y2U5); experiment: ELISA
[13] = molecular target: TTK (human) (UniProt P33981); experiment: ELISA
[14] = molecular target: STK11 (human) (UniProt Q15831); experiment: ELISA
[15] = molecular target: PLK4 (human) (UniProt O00444); experiment: ELISA
[16] = molecular target: MAP3K12 (human) (UniProt Q12852); experiment: ELISA
[17] = molecular target: WEE1 (human) (UniProt P30291); experiment: ELISA
[18] = molecular target: MAP3K11 (human) (UniProt Q16584); experiment: ELISA
[19] = molecular target: BMPR1A (human) (UniProt P36894); experiment: ELISA
[20] = molecular target: MAP2K7 (human) (UniProt O14733); experiment: ELISA
[21] = molecular target: MAP2K3 (human) (UniProt P46734); experiment: ELISA
[22] = molecular target: MAP3K4 (human) (UniProt Q9Y6R4); experiment: ELISA
[23] = molecular target: MAP2K5 (human) (UniProt Q13163); experiment: ELISA
[24] = molecular target: MAP3K3 (human) (UniProt Q99759); experiment: ELISA
[25] = molecular target: MAP3K9 (human) (UniProt P80192); experiment: ELISA
[26] = molecular target: MAP2K6 (human) (UniProt P52564); experiment: ELISA
[27] = molecular target: MAP2K1 (human) (UniProt Q02750); experiment: ELISA
[28] = molecular target: MAP3K5 (human) (UniProt Q99683); experiment: ELISA
[29] = molecular target: RAF1 (human) (UniProt P04049); experiment: ELISA
[30] = molecular target: MAP2K2 (human) (UniProt P36507); experiment: ELISA
[31] = molecular target: MOS (human) (UniProt P00540); experiment: ELISA
[32] = molecular target: MAP3K1 (human) (UniProt Q13233); experiment: ELISA
[33] = molecular target: LIMK1 (human) (UniProt P53667); experiment: ELISA
[34] = molecular target: MAP2K4 (human) (UniProt P45985); experiment: ELISA

Sequence of MAP2K6 (human) (P52564 whole entry, looked up): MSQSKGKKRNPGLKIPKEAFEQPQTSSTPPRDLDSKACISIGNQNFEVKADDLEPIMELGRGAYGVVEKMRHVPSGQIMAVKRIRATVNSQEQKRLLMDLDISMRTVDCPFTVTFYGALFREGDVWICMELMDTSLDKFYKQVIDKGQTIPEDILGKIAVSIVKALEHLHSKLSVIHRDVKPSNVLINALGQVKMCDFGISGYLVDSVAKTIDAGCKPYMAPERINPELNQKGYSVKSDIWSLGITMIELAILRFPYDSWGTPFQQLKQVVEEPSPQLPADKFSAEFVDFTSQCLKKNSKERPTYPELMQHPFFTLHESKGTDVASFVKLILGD
Sequence of RAF1 (human) (P04049 whole entry, looked up): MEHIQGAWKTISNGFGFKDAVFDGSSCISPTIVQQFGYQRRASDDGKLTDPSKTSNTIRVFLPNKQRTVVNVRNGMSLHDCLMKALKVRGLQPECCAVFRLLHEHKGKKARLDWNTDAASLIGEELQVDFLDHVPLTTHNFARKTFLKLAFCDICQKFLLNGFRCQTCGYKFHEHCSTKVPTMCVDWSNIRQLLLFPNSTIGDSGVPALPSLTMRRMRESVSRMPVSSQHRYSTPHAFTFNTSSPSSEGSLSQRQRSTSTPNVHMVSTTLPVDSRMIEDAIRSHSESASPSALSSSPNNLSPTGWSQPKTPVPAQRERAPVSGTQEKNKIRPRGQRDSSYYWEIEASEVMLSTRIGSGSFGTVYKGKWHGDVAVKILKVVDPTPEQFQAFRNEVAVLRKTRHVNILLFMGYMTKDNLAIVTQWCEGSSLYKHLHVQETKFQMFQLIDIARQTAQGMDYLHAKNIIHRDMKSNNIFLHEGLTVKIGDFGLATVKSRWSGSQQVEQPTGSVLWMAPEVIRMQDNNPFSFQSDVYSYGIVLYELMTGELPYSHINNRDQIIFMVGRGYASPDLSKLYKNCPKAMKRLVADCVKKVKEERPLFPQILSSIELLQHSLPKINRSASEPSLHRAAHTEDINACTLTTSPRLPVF
Sequence of TTK (human) (P33981 whole entry, looked up): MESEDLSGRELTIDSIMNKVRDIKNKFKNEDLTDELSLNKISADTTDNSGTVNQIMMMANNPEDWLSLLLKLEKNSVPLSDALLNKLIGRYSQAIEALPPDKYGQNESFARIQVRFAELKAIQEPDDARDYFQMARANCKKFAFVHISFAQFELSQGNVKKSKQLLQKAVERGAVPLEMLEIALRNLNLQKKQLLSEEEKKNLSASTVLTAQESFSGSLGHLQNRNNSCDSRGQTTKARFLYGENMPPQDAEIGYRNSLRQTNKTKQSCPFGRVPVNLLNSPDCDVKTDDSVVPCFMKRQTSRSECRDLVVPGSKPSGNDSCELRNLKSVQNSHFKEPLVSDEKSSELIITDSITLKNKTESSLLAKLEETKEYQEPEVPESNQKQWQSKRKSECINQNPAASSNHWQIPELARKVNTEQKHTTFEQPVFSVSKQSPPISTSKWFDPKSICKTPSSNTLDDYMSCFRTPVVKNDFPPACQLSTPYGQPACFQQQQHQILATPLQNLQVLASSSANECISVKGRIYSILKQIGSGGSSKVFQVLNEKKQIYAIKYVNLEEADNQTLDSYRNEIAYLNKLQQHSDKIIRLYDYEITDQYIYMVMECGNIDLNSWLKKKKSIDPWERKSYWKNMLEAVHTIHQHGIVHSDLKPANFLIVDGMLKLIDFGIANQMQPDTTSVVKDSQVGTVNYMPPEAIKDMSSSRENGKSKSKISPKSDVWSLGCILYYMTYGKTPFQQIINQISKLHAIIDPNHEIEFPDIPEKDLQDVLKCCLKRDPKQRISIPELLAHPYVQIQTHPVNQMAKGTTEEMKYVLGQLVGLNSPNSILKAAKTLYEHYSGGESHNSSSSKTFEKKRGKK
Sequence of MAP3K12 (human) (Q12852 whole entry, looked up): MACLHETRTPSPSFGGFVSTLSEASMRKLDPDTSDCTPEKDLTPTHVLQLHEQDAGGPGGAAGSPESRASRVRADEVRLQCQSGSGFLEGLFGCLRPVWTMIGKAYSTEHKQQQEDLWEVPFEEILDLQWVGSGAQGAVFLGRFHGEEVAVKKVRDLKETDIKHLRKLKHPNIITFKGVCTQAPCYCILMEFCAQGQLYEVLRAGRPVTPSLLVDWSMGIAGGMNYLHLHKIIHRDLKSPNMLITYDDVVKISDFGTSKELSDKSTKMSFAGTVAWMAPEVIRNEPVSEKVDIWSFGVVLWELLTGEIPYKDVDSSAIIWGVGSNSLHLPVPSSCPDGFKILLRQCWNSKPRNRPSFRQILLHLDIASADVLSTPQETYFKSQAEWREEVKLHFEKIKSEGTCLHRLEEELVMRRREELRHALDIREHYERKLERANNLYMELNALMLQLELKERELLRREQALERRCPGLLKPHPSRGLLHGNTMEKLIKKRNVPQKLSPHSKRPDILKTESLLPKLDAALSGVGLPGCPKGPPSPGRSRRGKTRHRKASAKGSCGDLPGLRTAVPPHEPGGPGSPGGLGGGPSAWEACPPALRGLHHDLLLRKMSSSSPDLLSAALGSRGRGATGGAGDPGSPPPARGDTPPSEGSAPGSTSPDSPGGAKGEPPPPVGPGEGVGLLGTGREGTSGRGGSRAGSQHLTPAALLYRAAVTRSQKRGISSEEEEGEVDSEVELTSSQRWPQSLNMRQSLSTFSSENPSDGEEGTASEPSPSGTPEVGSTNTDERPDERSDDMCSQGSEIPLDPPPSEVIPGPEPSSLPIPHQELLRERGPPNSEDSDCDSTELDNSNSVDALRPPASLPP
Sequence of MAP3K4 (human) (Q9Y6R4 whole entry, looked up): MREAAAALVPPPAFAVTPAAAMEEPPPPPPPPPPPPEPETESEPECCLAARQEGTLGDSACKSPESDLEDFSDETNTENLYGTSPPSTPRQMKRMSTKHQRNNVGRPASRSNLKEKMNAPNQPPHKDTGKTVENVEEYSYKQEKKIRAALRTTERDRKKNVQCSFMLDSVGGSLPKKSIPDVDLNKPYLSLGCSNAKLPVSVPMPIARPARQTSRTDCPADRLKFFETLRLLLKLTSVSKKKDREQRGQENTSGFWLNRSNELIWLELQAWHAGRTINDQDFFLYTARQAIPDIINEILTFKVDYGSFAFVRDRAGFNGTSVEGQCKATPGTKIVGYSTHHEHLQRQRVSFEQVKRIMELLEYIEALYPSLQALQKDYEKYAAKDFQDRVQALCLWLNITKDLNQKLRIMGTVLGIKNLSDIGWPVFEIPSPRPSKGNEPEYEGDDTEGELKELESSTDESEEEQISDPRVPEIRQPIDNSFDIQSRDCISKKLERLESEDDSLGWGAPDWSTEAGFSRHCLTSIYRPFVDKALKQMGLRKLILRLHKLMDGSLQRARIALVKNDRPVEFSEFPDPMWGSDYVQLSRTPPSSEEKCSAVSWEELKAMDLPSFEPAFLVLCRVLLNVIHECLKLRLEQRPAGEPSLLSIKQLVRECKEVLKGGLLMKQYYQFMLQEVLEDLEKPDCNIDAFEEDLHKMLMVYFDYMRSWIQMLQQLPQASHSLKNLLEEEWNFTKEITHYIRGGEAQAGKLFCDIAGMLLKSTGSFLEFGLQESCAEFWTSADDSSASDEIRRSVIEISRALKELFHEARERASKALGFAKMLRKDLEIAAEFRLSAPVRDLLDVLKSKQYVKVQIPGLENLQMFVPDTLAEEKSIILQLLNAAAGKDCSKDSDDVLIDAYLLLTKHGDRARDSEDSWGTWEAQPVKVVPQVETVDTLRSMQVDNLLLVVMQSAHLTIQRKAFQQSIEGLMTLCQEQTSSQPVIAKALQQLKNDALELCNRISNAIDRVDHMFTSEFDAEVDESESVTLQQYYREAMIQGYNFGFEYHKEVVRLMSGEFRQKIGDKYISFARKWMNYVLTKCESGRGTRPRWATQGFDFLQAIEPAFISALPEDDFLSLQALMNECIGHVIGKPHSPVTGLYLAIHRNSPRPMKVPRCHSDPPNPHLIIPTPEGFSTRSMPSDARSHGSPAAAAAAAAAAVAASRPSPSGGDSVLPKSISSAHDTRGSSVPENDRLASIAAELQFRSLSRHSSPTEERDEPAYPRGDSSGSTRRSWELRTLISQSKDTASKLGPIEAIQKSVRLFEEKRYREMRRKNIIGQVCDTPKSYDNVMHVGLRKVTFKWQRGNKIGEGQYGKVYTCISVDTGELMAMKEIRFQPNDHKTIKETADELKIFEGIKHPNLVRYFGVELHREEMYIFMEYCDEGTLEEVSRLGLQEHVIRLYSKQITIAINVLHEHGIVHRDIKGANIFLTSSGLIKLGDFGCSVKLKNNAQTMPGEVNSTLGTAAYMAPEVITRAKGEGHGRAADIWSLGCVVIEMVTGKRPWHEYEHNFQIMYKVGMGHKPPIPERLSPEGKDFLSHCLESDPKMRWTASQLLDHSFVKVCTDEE
Sequence of MAP2K7 (human) (O14733 whole entry, looked up): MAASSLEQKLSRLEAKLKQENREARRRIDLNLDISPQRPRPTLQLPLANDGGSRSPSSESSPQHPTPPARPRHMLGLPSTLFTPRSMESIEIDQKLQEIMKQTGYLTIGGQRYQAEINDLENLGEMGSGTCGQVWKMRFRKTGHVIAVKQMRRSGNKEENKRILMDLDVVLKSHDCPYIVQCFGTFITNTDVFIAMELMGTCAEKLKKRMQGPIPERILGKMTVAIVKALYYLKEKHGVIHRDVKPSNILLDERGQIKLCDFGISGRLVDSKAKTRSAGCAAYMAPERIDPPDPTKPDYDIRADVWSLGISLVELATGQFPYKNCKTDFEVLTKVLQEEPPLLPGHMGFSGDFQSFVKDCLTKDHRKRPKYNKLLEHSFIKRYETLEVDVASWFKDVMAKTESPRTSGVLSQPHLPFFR
Sequence of MAP2K3 (human) (P46734 whole entry, looked up): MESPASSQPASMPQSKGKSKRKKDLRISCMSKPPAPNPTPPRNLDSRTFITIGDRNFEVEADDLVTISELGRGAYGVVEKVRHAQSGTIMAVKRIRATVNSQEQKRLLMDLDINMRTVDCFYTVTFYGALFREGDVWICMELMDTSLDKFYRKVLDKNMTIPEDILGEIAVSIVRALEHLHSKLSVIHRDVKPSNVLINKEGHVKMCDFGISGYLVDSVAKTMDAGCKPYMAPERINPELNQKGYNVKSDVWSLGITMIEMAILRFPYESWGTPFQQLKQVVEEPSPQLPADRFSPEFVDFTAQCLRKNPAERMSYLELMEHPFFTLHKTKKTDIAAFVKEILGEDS

inhibition ([1]; compound 0.02 µM): 2.5% | inhibition ([1]; compound 0.2 µM): 37.2% | inhibition ([2]; compound 0.02 µM): -2.4% | inhibition ([2]; compound 0.2 µM): 0.9% | inhibition ([3]; compound 0.02 µM): -2.1% | inhibition ([3]; compound 0.2 µM): 16.8% | inhibition ([4]; compound 0.02 µM): 4.4% | inhibition ([4]; compound 0.2 µM): 48.3% | inhibition ([5]; compound 0.02 µM): -0.8% | inhibition ([5]; compound 0.2 µM): 8.1% | inhibition ([6]; compound 0.02 µM): -0.6% | inhibition ([6]; compound 0.2 µM): -2.1% | inhibition ([7]; compound 0.02 µM): -5.4% | inhibition ([7]; compound 0.2 µM): 0.2% | inhibition ([8]; compound 0.02 µM): -23.9% | inhibition ([8]; compound 0.2 µM): 4.5% | inhibition ([9]; compound 0.02 µM): -12.3% | inhibition ([9]; compound 0.2 µM): -14.3% | inhibition ([10]; compound 0.02 µM): -1.8% | inhibition ([10]; compound 0.2 µM): -2.3% | inhibition ([11]; compound 0.02 µM): 0.5% | inhibition ([11]; compound 0.2 µM): 0.2% | inhibition ([12]; compound 0.02 µM): 5.2% | inhibition ([12]; compound 0.2 µM): 5.2% | inhibition ([13]; compound 0.02 µM): -7.6% | inhibition ([13]; compound 0.2 µM): -4.3% | inhibition ([14]; compound 0.02 µM): 6.4% | inhibition ([14]; compound 0.2 µM): 6.2% | inhibition ([15]; compound 0.02 µM): 10.5% | inhibition ([15]; compound 0.2 µM): 13.4% | inhibition ([16]; compound 0.02 µM): 4.1% | inhibition ([16]; compound 0.2 µM): 2.7% | inhibition ([17]; compound 0.02 µM): -7.4% | inhibition ([17]; compound 0.2 µM): -2% | inhibition ([18]; compound 0.02 µM): 2.4% | inhibition ([18]; compound 0.2 µM): -2.6% | inhibition ([19]; compound 0.02 µM): 6.9% | inhibition ([19]; compound 0.2 µM): 7% | inhibition ([20]; compound 0.02 µM): -0.7% | inhibition ([20]; compound 0.2 µM): 1.1% | inhibition ([21]; compound 0.02 µM): 9.8% | inhibition ([21]; compound 0.2 µM): 58.5% | inhibition ([22]; compound 0.02 µM): 8.5% | inhibition ([22]; compound 0.2 µM): 4.4% | inhibition ([23]; compound 0.02 µM): 3.6% | inhibition ([23]; compound 0.2 µM): 6.2% | inhibition ([24]; compound 0.02 µM): -2.1% | inhibition ([24]; compound 0.2 µM): -3% | inhibition ([25]; compound 0.02 µM): 8.6% | inhibition ([25]; compound 0.2 µM): 10.1% | inhibition ([26]; compound 0.02 µM): 13.6% | inhibition ([26]; compound 0.2 µM): 64.2% | inhibition ([27]; compound 0.02 µM): 13.7% | inhibition ([27]; compound 0.2 µM): 17.4% | inhibition ([28]; compound 0.02 µM): 9.6% | inhibition ([28]; compound 0.2 µM): 7.4% | inhibition ([29]; compound 0.02 µM): 41.7% | inhibition ([29]; compound 0.2 µM): 88.1% | inhibition ([30]; compound 0.02 µM): -1.8% | inhibition ([30]; compound 0.2 µM): -2.7% | inhibition ([31]; compound 0.02 µM): 3% | inhibition ([31]; compound 0.2 µM): 0.5% | inhibition ([32]; compound 0.02 µM): 0.7% | inhibition ([32]; compound 0.2 µM): -0.2% | inhibition ([33]; compound 0.02 µM): 2.6% | inhibition ([33]; compound 0.2 µM): 13% | inhibition ([34]; compound 0.02 µM): 1.7% | inhibition ([34]; compound 0.2 µM): 3.6%
SMILES: CNC(=O)c1cc(Oc2ccc(NC(=O)Nc3ccc(Cl)c(C(F)(F)F)c3)cc2)ccn1
